Measured values from patent publication US11274106B2, “Topoisomerase inhibitors with antibacterial and anticancer activity” (THE BOARD OF TRUSTEES OF THE UNIVERSITY OF ILLINOIS, priority 2017, dated 2022).
“Also recorded” adds a separate entry of the source.

Columns and labels:
IMR32 = experiment: Antiproliferative SRB assay, IMR32; assay type: cell-based; settings: Homo sapiens, IMR-32, 72 h, Neuroblastoma, mean ± SEM
Description: (§1) Topoisomerase inhibitors such as DOX are used as single agent and in combination therapy to treat a wide-range of cancer types.

HOS = experiment: Antiproliferative SRB assay, HOS; assay type: cell-based; settings: Homo sapiens, 72 h, Osteosarcoma, mean ± SEM
Description: as §1

panel of cancer cells = experiment: Average over panel of 10 cancer cell lines; assay type: cell-based; settings: 72 hour, read-out: Average (mean) IC50 over the cell line panel
Description: as §1

Top2α = Top2α (Homo sapiens, UniProt P11388); experiment: Top2α kDNA decatenation assay; assay type: biochemical; settings: gel electrophoresis, FIG. 3a
Description: (§2) FIG. 3. DNM derivatives are dual Top1/Top2 inhibitors with different modes of inhibition. (a) Inhibition of decatenating ability of Top2α with increasing concentrations of ETP, 6DNM-NH3, 6DNM-Pyr, and Ph-6DNM-NH3. K, kinetoplast DNA; OC, open circular; R, relaxed. (b) Inhibition of relaxing ability of Top1 with increasing concentrations of CPT, 6DNM-NH3, 6DNM-Pyr, and Ph-6DNM-NH3. R, relaxed; S, supercoiled. (c) Detection of Top2a-DNA using the ICE Assay. Genomic DNA ([…]) of H460 cells treated with drugs (50 μM, 30 min) was applied to nitrocellulose membrane and immunoblotted for Top2a. (d) Detection of Top1-DNA adducts using ICE Assay. Same procedure as (c) using 1 μg of DNA. (e) Inhibition of ETP-induced poisoning of Top2a. H460 cells treated with indicated concentrations of inhibitor for 30 min prior to treatment with ETP (50 μM). Detection of Top2α as in (c).
FIG. 9. Mechanism of action studies: Topoisomerases form transient covalent complexes with DNA to modify DNA topology. Ph6DNM-NH3 and 6DNM-NH3 inhibit bacterial DNA gyrase and human topoisomerase II in vitro.
The ability of Ph-6DNM-NH3, 6DNM-NH3, and 6DNM-Pyr to inhibit Top2α was assessed using a decatenation assay. In this assay, Top2α is incubated with kinetoplast DNA (kDNA), a large network of catenated minicircles and maxicircles of DNA. As Top2α decatenates the kDNA, it releases supercoiled and relaxed DNA minicircles that are easily separated from the kDNA by gel electrophoresis.

Top2cc = biological target: T1, Top2cc (Homo sapiens, UniProt P11388); experiment: ICE assay for Top2α-DNA complexes in H460 cells; assay type: cell-based; settings: for Accumulation of Top2cc (ICE assay): 50 μM; for Effect on ETP-induced Top2cc: pre-treatment 30 minutes prior to ETP (50 μM)
T1 construct: endogenous in cells; host or cells: H460
Description: as §2
(§3) The in vivo complex of enzyme (ICE) assay can be used to distinguish poisons from catalytic inhibitors. The ICE assay consists of isolating the genomic DNA of cells treated with small molecules in a manner the preserves covalent DNA-protein complexes and applying it to nitrocellulose membranes. Because topoisomerase poisons stabilize the cleavage complexes, DNA-protein complexes can be detected by immunoblotting for specific topoisomerases, whereas catalytic inhibitors produce no such result. To determine if DNM derivatives are acting as poisons or catalytic inhibitors, H460 human lung cells were exposed to 50 μM of the Top2 poison ETP, Ph-6DNM-NH3, 6DNM-NH3, and 6DNM-Pyr and assessed for their ability to stabilize Top2cc. […] In a similar fashion, next investigated was the mode of Top1 inhibition using the ICE assay (FIG. 3b).

Top1cc = biological target: T2, Top1cc (Homo sapiens, UniProt P11387); experiment: ICE assay for Top1-DNA adducts in H460 cells; assay type: cell-based; settings: for Accumulation of Top1cc (ICE assay): H460 cells, 50 μM, 30 min; for Mode of topoisomerase inhibition: in vitro and cell culture experiments taken together
T2 construct: endogenous in cells; host or cells: H460
T2 sequence (P11387 2-765 limits assumed): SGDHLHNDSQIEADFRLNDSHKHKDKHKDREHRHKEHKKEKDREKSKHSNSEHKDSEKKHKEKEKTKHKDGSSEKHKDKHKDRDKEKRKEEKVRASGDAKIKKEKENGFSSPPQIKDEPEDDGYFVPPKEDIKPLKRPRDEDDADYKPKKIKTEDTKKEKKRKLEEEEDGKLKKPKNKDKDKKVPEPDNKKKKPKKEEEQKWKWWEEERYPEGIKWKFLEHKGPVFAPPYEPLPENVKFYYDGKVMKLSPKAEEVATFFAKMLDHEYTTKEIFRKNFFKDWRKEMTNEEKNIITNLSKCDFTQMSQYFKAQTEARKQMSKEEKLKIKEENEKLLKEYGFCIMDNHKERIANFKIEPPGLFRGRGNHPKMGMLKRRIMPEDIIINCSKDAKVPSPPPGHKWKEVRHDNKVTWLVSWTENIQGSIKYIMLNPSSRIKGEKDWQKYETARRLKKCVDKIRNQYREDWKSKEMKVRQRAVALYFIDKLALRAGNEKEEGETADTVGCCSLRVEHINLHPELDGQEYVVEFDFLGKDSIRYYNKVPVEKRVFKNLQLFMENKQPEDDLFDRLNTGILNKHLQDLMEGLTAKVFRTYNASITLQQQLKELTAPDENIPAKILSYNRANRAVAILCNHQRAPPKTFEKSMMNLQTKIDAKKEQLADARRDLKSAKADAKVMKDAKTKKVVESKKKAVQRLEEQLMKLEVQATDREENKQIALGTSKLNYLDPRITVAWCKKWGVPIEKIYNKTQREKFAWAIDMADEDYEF
Description: as §2, §3

Top2α, sequence (P11388 whole entry): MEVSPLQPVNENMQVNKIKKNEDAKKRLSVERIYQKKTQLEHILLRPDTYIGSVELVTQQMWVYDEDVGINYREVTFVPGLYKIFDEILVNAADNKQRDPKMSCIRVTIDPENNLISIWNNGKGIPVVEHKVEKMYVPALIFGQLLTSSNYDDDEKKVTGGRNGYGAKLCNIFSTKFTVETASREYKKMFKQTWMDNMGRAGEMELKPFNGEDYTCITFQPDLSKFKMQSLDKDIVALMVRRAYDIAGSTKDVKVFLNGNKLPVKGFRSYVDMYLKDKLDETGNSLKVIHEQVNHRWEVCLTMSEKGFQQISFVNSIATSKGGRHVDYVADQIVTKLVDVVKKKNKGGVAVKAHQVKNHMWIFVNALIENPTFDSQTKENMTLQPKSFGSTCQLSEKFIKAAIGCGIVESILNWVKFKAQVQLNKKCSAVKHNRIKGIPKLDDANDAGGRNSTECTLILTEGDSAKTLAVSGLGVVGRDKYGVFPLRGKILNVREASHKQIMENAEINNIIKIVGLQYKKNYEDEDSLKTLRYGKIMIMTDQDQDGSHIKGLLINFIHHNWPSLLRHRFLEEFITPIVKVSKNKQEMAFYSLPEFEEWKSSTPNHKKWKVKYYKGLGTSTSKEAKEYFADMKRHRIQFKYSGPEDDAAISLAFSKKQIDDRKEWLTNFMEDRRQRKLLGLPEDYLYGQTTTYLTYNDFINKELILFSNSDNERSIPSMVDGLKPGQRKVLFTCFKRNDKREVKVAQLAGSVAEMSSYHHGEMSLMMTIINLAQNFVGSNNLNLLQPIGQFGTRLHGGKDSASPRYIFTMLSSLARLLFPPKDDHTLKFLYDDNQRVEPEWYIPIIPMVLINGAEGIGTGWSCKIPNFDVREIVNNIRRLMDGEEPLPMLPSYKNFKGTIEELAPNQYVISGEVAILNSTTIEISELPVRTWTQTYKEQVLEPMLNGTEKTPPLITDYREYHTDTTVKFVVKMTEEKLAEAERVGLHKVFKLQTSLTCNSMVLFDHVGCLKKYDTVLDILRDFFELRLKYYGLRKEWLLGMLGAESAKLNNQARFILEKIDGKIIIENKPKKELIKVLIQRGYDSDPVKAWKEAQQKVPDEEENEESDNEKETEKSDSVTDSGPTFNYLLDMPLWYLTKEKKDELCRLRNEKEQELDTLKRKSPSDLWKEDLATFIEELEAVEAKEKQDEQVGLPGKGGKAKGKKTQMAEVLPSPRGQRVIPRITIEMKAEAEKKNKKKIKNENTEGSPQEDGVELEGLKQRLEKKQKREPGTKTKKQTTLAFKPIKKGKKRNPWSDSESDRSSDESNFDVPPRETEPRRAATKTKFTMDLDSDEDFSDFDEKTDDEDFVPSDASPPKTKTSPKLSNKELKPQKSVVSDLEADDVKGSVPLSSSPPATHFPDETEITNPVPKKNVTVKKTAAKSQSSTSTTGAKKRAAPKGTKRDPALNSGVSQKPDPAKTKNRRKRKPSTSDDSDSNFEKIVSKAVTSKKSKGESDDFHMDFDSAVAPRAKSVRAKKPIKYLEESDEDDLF
T1 sequence (P11388 whole entry): as above

| SMILES | IC50 (IMR32) [nM] | IC50 (HOS) [nM] | IC50 (panel of cancer cells) [nM] | Inhibition of decatenating function of Top2α (Top2α; listed as 6DNM-Pyr) | Accumulation of Top2cc (ICE assay) (Top2cc) | Effect on ETP-induced Top2cc (Top2cc) | Accumulation of Top1cc (ICE assay) (Top1cc) | Mode of topoisomerase inhibition (Top1cc) | Inhibition of decatenating function of Top2α (Top2α; listed as Ph-6DNM-NH3) |
| --- | --- | --- | --- | --- | --- | --- | --- | --- | --- |
| Cc1cc(=O)n(C)c2c3c4c(cc12)c(C)cc(=O)n4C(CN1CCCC1)CO3 (stereo not shown) [Compound 20] | 4.4 ± 0.3 | 16 ± 2 | 25 | inhibit the decatenating function of Top2α in a dose-dependent manner; also recorded: inhibiting Top2α function at lower concentrations than 6DNM-NH3 | only ETP treatment resulted in the accumulation of Top2cc | dose-dependent decrease in ETP-induced Top2cc | neither 6DNM-NH3 nor 6DNM-Pyr, leads to the accumulation of Top1cc | dual Top1/Top2α catalytic inhibitors | – |
| Cc1cc(=O)n2c3c(c4c(cc13)c1ccccc1c(=O)n4C)OCC2CN (stereo not shown) [Compound 15] | 8.6 ± 0.1 | 17 ± 1 | 164 | – | only ETP treatment resulted in the accumulation of Top2cc | dose-dependent decrease in ETP-induced Top2cc | leads to the accumulation of Top1cc | Top1 poison/Top2α catalytic inhibitor | inhibit the decatenating function of Top2α in a dose-dependent manner; also recorded: the least active derivative in this in vitro assay |
